In brackets after ≈: the same amount, converted by molar mass. Read-outs that look alike come from different tables or passages of the source.
What was measured:
Format in all cases: cell-based
[1] = tested on: Staphylococci (43 strains); experiment: MBBC against biofilms of clinical DFI isolates, staphylococci total
Description: (§1) Preparation of test strains: In this example, foot specimens were collected from 49 patients with type II diabetes. Isolates were obtained from the specimens described above through homogenization, plating, and culture at 37° C., and after the removal of fungi and strains with poor growth or strains that could not be isolated and purified, a total of 69 clinical strains were obtained. Among these, 55 strains were Gram-positive bacteria and 14 strains were Gram-negative bacteria. Of the Gram-positive bacteria, 43 strains were staphylococci, including 18 Staphylococcus aureus strains, 8 Staphylococcus epidermidis strains, and 5 Staphylococcus lugdunensis strains. One ATCC standard strain was additionally used as a standard and quality control strain.
(§2) Preparation of biofilms: In a sterile environment, a single, identified, and thawed colony was picked with an inoculation loop and bacterial inoculums were adjusted to a 0.5 McFarland standard, which served as an initial bacterial inoculum. The bacterial inoculum was diluted in a 1:200 ratio by adding 50 μL of the initial bacterial inoculums to 10 mL of a CAMHB medium. 150 μL of the bacterial inoculums was transferred to a CBD plate using a pipette. The inoculated CBD plate was incubated in an incubator at 35±2° C. for 16-20 hours.
(§3) Determination of antibacterial activity: The minimum inhibitory concentration (MIC) and the minimum biofilm bactericidal concentration (MBBC) for in vitro biofilms of the compound of formula (I) and control drugs (see details in 2) against 69 clinically isolated diabetic foot infection clinical strains were evaluated using the standard broth dilution method and the in vitro biofilm culture and drug susceptibility methods reported in the literature.

[2] = tested on: Gram-negative bacteria (14 strains); experiment: MBBC for in vitro biofilms of clinical DFI isolates, Gram-negative bacteria
Description: as §1, §2, §3

[3] = tested on: Staphylococci (43 strains); experiment: MIC against clinical DFI isolates, staphylococci total
Description: as §1, §3

[4] = tested on: Gram-positive bacteria (55 strains); experiment: MIC by standard broth dilution against clinical DFI isolates, Gram-positive bacteria
Description: as §1, §3

[5] = tested on: Gram-negative bacteria (14 strains); experiment: MIC by standard broth dilution against clinical DFI isolates, Gram-negative bacteria
Description: as §1, §3

[6] = tested on: Gram-positive bacteria (55 strains); experiment: MBBC for in vitro biofilms of clinical DFI isolates, Gram-positive bacteria
Description: as §1, §2, §3

[7] = tested on: Staphylococcus aureus (18 strains); experiment: MIC against clinical DFI isolates, Staphylococcus aureus
Description: as §1, §3

[8] = tested on: Staphylococcus aureus (18 strains); experiment: MBBC against biofilms of clinical DFI isolates, Staphylococcus aureus
Description: as §1, §2, §3

[9] = tested on: Staphylococcus epidermidis (8 strains); experiment: MBBC against biofilms of clinical DFI isolates, Staphylococcus epidermidis
Description: as §1, with “strain. […]” for “strain.”
as §3

[10] = tested on: Staphylococcus epidermidis (8 strains); experiment: MIC against clinical DFI isolates, Staphylococcus epidermidis
Description: as §1, §3

[11] = biofilms, Staphylococci (43 strains), total, read-out: MBBC50
[12] = biofilms, Staphylococci (43 strains), total, read-out: MBBC90
[13] = Staphylococci (43 strains), total, read-out: MIC90
[14] = Gram-positive bacteria (55 strains), clinical DFI isolates
[15] = Gram-positive bacteria (55 strains), clinical DFI isolates, read-out: MIC50
[16] = biofilms, Gram-positive bacteria (55 strains), read-out: MBBC50
[17] = biofilms, Gram-positive bacteria (55 strains), read-out: MBBC90
[18] = Staphylococcus aureus (18 strains)
[19] = Staphylococcus aureus (18 strains), read-out: MIC90
[20] = biofilms, Staphylococcus aureus (18 strains), read-out: MBBC50
[21] = biofilms, Staphylococcus aureus (18 strains), read-out: MBBC90
[22] = Staphylococci (43 strains), total
[23] = Staphylococci (43 strains), total, read-out: MIC50
[24] = Staphylococcus aureus (18 strains), read-out: MIC50
[25] = biofilms, Staphylococcus aureus (18 strains)
[26] = biofilms, Gram-positive bacteria (55 strains)

SMILES | MBC [1, 11] | MBC [1, 12] | MBC ([2]; read-out: MBBC50) | MBC ([2]; read-out: MBBC90) | MIC90 [3, 13] | MIC90 [4, 14] | MIC50 [4, 15] | MIC50 [5] | MIC90 [5] | MBC [6, 16] | MBC [6, 17] | MIC range [7, 18] | MIC90 [7, 19] | MBC [8, 20] | MBC [8, 21] | MIC range [3, 22] | MIC50 [3, 23] | MIC50 [7, 24] | MIC range [10] | further results
CCC[C@@H]1C[C@@H](C(=O)N[C@@H]([C@H]2O[C@H](SC)[C@H](O)[C@@H](O)[C@H]2O)[C@H](C)Cl)N(C)C1 [Clindamycin] | > 128 mg/L | > 128 mg/L | > 128 mg/L | > 128 mg/L | 128 mg/L (≈ 301 µM) | > 128 mg/L | 0.25 mg/L (≈ 0.588 µM) | > 128 mg/L | > 128 mg/L | > 128 mg/L | > 128 mg/L | ≤0.06~0.5 μg/mL | 0.25 mg/L (≈ 0.588 µM) | > 128 mg/L | > 128 mg/L | – | – | – | – | MIC50 [3]: 0.125 mg/L (≈ 0.294 µM); MIC50 ([7]; Staphylococcus aureus): 0.125 mg/L (≈ 0.294 µM)
CO[C@H]1/C=C/O[C@@]2(C)Oc3c(C)c(O)c4c(O)c(c(/C=N/N5CCC(N(C)C6([C@@H]7CCN(c8c(F)cn9c(=O)c(C(=O)O)cc(C%10CC%10)c9c8C)C7)CC6)CC5)c(O)c4c3C2=O)NC(=O)/C(C)=C\C=C\[C@H](C)[C@H](O)[C@@H](C)[C@@H](O)[C@@H](C)[C@H](OC(C)=O)[C@@H]1C [Compound of formula (I)] | 0.06 mg/L | 0.5 mg/L | > 16 mg/L | > 32 mg/L | ≤ 0.015 mg/L | 0.25 mg/L | ≤ 0.015 mg/L | > 32 mg/L | > 32 mg/L | 0.125 mg/L | 16 mg/L | ≤0.015~0.03 μg/mL | ≤ 0.015 mg/L | 0.25 mg/L | 0.5 mg/L | ≤0.015~0.25 μg/mL | ≤ 0.015 mg/L | ≤ 0.015 mg/L | ≤0.015~0.03 ^ μg/mL | MBBC range ([1]; biofilms, Staphylococci (43 strains), total): ≤0.015~1 μg/mL; MBBC range ([1]; in vitro biofilms of staphylococci): 0.015 to 1 g/mL; MBBC50 ([1]; staphylococci biofilms): 0.06 µg/mL; MBBC90 ([1]; staphylococci biofilms): 0.5 µg/mL; MIC50 ([3]; staphylococci, read-out: MIC50): < 0.015 mg/L; MIC90 ([3]; staphylococci, read-out: MIC90): 0.015 mg/L; MIC50 ([4]; Gram-positive bacterial isolates, text b97): < 0.015 mg/L; MBBC range [9]: ≤0.015~0.06 ^ μg/mL; MIC50 ([7]; Staphylococcus aureus, read-out: MIC50): < 0.015 mg/L; MIC90 ([7]; Staphylococcus aureus, read-out: MIC90): 0.015 mg/L; MBBC50 ([8]; Staphylococcus aureus biofilms): 0.25 µg/mL; MBBC range [8, 25]: 0.03~0.5 μg/mL; MBBC range ([8]; in vitro biofilms of Staphylococcus aureus): 0.03 to 0.5 g/mL
CC(=O)NC[C@H]1CN(c2ccc(N3CCOCC3)c(F)c2)C(=O)O1 [Linezolid] | > 128 mg/L | > 128 mg/L | > 128 mg/L | > 128 mg/L | 4 mg/L (≈ 11.9 µM) | – | – | > 128 mg/L | > 128 mg/L | > 128 mg/L | > 128 mg/L | 2~4 μg/mL | 4 mg/L (≈ 11.9 µM) | > 128 mg/L | > 128 mg/L | 0.5~4 μg/mL | 2 mg/L (≈ 5.93 µM) | 2 mg/L (≈ 5.93 µM) | 2~4 μg/mL | MIC50 ([3]; staphylococci, read-out: MIC50): 2 mg/L (≈ 5.93 µM); MIC90 ([3]; staphylococci, read-out: MIC90): 4 mg/L (≈ 11.9 µM); MBBC50 [6, 26]: >128 µg/mL; MBBC90 [6, 26]: >128 µg/mL
C/C(=C\C(=O)OCCCCCCCCC(=O)O)C[C@@H]1OC[C@H](C[C@@H]2O[C@H]2[C@@H](C)[C@H](C)O)[C@@H](O)[C@H]1O [Mupirocin] | > 128 mg/L | > 128 mg/L | > 128 mg/L | > 128 mg/L | 32 mg/L (≈ 63.9 µM) | 64 mg/L (≈ 128 µM) | – | > 128 mg/L | > 128 mg/L | > 128 mg/L | > 128 mg/L | – | > 128 mg/L | > 128 mg/L | > 128 mg/L | – | 0.25 mg/L (≈ 0.499 µM) | 0.25 mg/L (≈ 0.499 µM) | 0.25~0.5 μg/mL | –
Cc1onc(-c2ccccc2)c1C(=O)N[C@@H]1C(=O)N2[C@@H]1SC(C)(C)[C@@H]2C(=O)O [Oxacillin] | > 128 mg/L | > 128 mg/L | > 128 mg/L | > 128 mg/L | 128 mg/L (≈ 319 µM) | – | – | > 128 mg/L | > 128 mg/L | > 128 mg/L | > 128 mg/L | – | 64 mg/L (≈ 159 µM) | 32 mg/L (≈ 79.7 µM) | > 128 mg/L | – | 2 mg/L (≈ 4.98 µM) | 0.5 mg/L (≈ 1.25 µM) | – | –
CO[C@H]1/C=C/O[C@@]2(C)Oc3c(C)c(O)c4c(O)c(c(/C=N/N5CCN(C)CC5)c(O)c4c3C2=O)NC(=O)/C(C)=C\C=C\[C@H](C)[C@H](O)[C@@H](C)[C@@H](O)[C@@H](C)[C@H](OC(C)=O)[C@@H]1C [Rifampicin] | 4 mg/L (≈ 4.86 µM) | > 16 mg/L | > 16 mg/L | > 32 mg/L | ≤ 0.015 mg/L | 0.5 mg/L (≈ 0.608 µM) | ≤ 0.015 mg/L | 32 mg/L (≈ 38.9 µM) | > 32 mg/L | 8 mg/L (≈ 9.72 µM) | > 16 mg/L | ≤0.015 µg/mL | ≤ 0.015 mg/L | 16 mg/L (≈ 19.4 µM) | > 16 mg/L | – | ≤ 0.015 mg/L | ≤ 0.015 mg/L | ≤0.015 µg/mL | MBBC range [9]: 0.03~16 ^ μg/mL; MBBC range [8, 25]: ≤0.03~16 ^ μg/mL
CN[C@H](CC(C)C)C(=O)N[C@H]1C(=O)N[C@@H](CC(N)=O)C(=O)N[C@H]2C(=O)N[C@H]3C(=O)N[C@H](C(=O)N[C@H](C(=O)O)c4cc(O)cc(O)c4-c4cc3ccc4O)[C@H](O)c3ccc(c(Cl)c3)Oc3cc2cc(c3O[C@@H]2O[C@H](CO)[C@@H](O)[C@H](O)[C@H]2O[C@H]2C[C@](C)(N)[C@H](O)[C@H](C)O2)Oc2ccc(cc2Cl)[C@H]1O [Vancomycin] | – | – | > 128 mg/L | > 128 mg/L | – | 2 mg/L (≈ 1.38 µM) | 2 mg/L (≈ 1.38 µM) | > 128 mg/L | > 128 mg/L | – | – | 1~2 μg/mL | – | – | – | 1~4 μg/mL | – | – | 2~4 μg/mL | MBC ([1]; read-out: MBBC50): > 128 mg/L; MBC ([1]; read-out: MBBC90): > 128 mg/L; MIC50 [3]: 2 mg/L (≈ 1.38 µM); MIC90 [3]: 2 mg/L (≈ 1.38 µM); MIC50 ([3]; staphylococci): 2 mg/L (≈ 1.38 µM); MIC90 ([3]; staphylococci): 2 mg/L (≈ 1.38 µM); MBBC50 [6, 26]: >128 µg/mL; MBBC90 [6, 26]: >128 µg/mL; MBC ([6]; read-out: MBBC50): > 128 mg/L; MBC ([6]; read-out: MBBC90): > 128 mg/L; MIC50 ([7]; Staphylococcus aureus): 2 mg/L (≈ 1.38 µM); MIC90 ([7]; Staphylococcus aureus): 2 mg/L (≈ 1.38 µM); MBC ([8]; Staphylococcus aureus, read-out: MBBC50): > 128 mg/L; MBC ([8]; Staphylococcus aureus, read-out: MBBC90): > 128 mg/L

Reference: patent US20260256765A1, “METHOD OF TREATING DISEASE USING COMPOUND, AND USE OF COMPOUND” (TENNOR THERAPEUTICS (SUZHOU) LIMITED, priority 2023, published 2026)
